system: monocytic THP1 cells infected with HIV VSV-G pseudotyped GFP-NEF reporter virus; test: cells; assay type: cell-based; details: Human immunodeficiency virus 1, THP-1, 24 h

In order of falling EC50:
1. Cc1cc(/C=C/C#N)c(C(F)(F)F)c(C)c1Oc1nc(NC23CC(C#N)(C2)C3)nc2nn(C)cc12 [Compound 4, (E)-3-((4-(4-(2-cyanovinyl)-2,6-dimethyl-3-(trifluoromethyl)phenoxy)-2-methyl-2H-pyrazolo[3,4-d]pyrimidin-6-yl)amino)bicyclo[1.1.1]pentane-1-carbonitrile]  1.49 µM
2. Cc1cc(/C=C/C#N)cc(C)c1Oc1nc(NC23CC(C#N)(C2)C3)nc2nc(Nc3cccnc3)[nH]c12 [Compound 69, (E)-3-((6-(4-(2-cyanovinyl)-2,6-dimethylphenoxy)-8-(pyridin-3-ylamino)-7H-purin-2-yl)amino)bicyclo[1.1.1]pentane-1-carbonitrile]  0.496 µM
3. Cc1cc(/C=C/C#N)cc(C)c1Oc1nc(NC23CC(C#N)(C2)C3)nc2nc(Nc3ccccc3)[nH]c12 [Compound 70, (E)-3-((6-(4-(2-cyanovinyl)-2,6-dimethylphenoxy)-8-(phenylamino)-7H-purin-2-yl)amino)bicyclo[1.1.1]pentane-1-carbonitrile]  0.415 µM
4. Cc1cc(/C=C/C#N)cc(C)c1Oc1nc(NC23CC(C#N)(C2)C3)nc2nc(C3CCCCC3)[nH]c12 [Compound 51, (E)-3-((6-(4-(2-cyanovinyl)-2,6-dimethylphenoxy)-8-cyclohexyl-7H-purin-2-yl)amino)bicyclo[1.1.1]pentane-1-carbonitrile]  0.374 µM
5. Cc1cc(/C=C/C#N)cc(C)c1Oc1nc(NC23CC(C#N)(C2)C3)nc2nc(C3CCC(F)(F)CC3)[nH]c12 [Compound 54, (E)-3-((6-(4-(2-cyanovinyl)-2,6-dimethylphenoxy)-8-(4,4-difluorocyclohexyl)-7H-purin-2-yl)amino)bicyclo[1.1.1]pentane-1-carbonitrile]  0.364 µM
6. Cc1cc(/C=C/C#N)cc(C)c1Oc1nc(NC23CC(C#N)(C2)C3)nc2nc(C(F)F)[nH]c12 [Compound 26, (E)-3-((6-(4-(2-cyanovinyl)-2,6-dimethylphenoxy)-8-(difluoromethyl)-7H-purin-2-yl)amino)bicyclo[1.1.1]pentane-1-carbonitrile]  0.347 µM
7. Cc1cc(/C=C/C#N)cc(C)c1Oc1nc(NC23CC(C#N)(C2)C3)nc2nc(-c3cn[nH]c3)[nH]c12 [Compound 66, (E)-3-((6-(4-(2-cyanovinyl)-2,6-dimethylphenoxy)-8-(1H-pyrazol-4-yl)-7H-purin-2-yl)amino)bicyclo[1.1.1]pentane-1-carbonitrile]  0.298 µM
8. Cc1cc(/C=C/C#N)cc(C)c1Oc1nc(NC23CC(C#N)(C2)C3)nc2nc(Nc3ccccn3)[nH]c12 [Compound 68, (E)-3-((6-(4-(2-cyanovinyl)-2,6-dimethylphenoxy)-8-(pyridin-2-ylamino)-7H-purin-2-yl)amino)bicyclo[1.1.1]pentane-1-carbonitrile]  0.273 µM
9. Cc1cc(/C=C/C#N)cc(C)c1Oc1nc(NC23CC(C#N)(C2)C3)nc2nc(C3CCCC3)[nH]c12 [Compound 53, (E)-3-((6-(4-(2-cyanovinyl)-2,6-dimethylphenoxy)-8-cyclopentyl-7H-purin-2-yl)amino)bicyclo[1.1.1]pentane-1-carbonitrile]  0.233 µM
10. Cc1cc(/C=C/C#N)cc(C)c1Oc1nc(NC23CC(C#N)(C2)C3)nc2nc(Nc3c(C)noc3C)[nH]c12 [Compound 67, (E)-3-((6-(4-(2-cyanovinyl)-2,6-dimethylphenoxy)-8-((3,5-dimethylisoxazol-4-yl)amino)-7H-purin-2-yl)amino)bicyclo[1.1.1]pentane-1-carbonitrile]  0.231 µM
11. Cc1cc(/C=C/C#N)cc(C)c1Oc1nc(NC23CC(C#N)(C2)C3)nc2nc(Nc3ccn(C)n3)[nH]c12 [Compound 48, (E)-3-((6-(4-(2-cyanovinyl)-2,6-dimethylphenoxy)-8-((1-methyl-1H-pyrazol-3-yl)amino)-7H-purin-2-yl)amino)bicyclo[1.1.1]pentane-1-carbonitrile]  0.151 µM
12. Cc1cc(/C=C/C#N)cc(C)c1Oc1nc(NC23CC(C#N)(C2)C3)nc2c1nc(C)n2CCC#N [Compound 57, (E)-3-((9-(2-cyanoethyl)-6-(4-(2-cyanovinyl)-2,6-dimethylphenoxy)-8-methyl-9H-purin-2-yl)amino)bicyclo[1.1.1]pentane-1-carbonitrile]  0.147 µM
13. Cc1cc(/C=C/C#N)cc(C)c1Oc1nc(NC23CC(C#N)(C2)C3)nc2nc(C3CCOCC3)[nH]c12 [Compound 52, (E)-3-((6-(4-(2-cyanovinyl)-2,6-dimethylphenoxy)-8-(tetrahydro-2H-pyran-4-yl)-7H-purin-2-yl)amino)bicyclo[1.1.1]pentane-1-carbonitrile]  0.137 µM
14. Cc1cc(/C=C/C#N)cc(C)c1Oc1nc(NC23CC(C#N)(C2)C3)nc2nc(-c3ccn(C)n3)[nH]c12 [Compound 65, (E)-3-((6-(4-(2-cyanovinyl)-2,6-dimethylphenoxy)-8-(1-methyl-1H-pyrazol-3-yl)-7H-purin-2-yl)amino)bicyclo[1.1.1]pentane-1-carbonitrile]  0.132 µM
15. CCNc1nc2nc(NC34CC(C#N)(C3)C4)nc(Oc3c(C)cc(/C=C/C#N)cc3C)c2[nH]1 [Compound 47, (E)-3-((6-(4-(2-cyanovinyl)-2,6-dimethylphenoxy)-8-(ethylamino)-7H-purin-2-yl)amino)bicyclo[1.1.1]pentane-1-carbonitrile]  0.118 µM
16. Cc1cc(/C=C/C#N)cc(C)c1Oc1nc(NC23CC(C#N)(C2)C3)nc2c1nc(C)n2C(F)F [Compound 15, (E)-3-((6-(4-(2-cyanovinyl)-2,6-dimethylphenoxy)-9-(difluoromethyl)-8-methyl-9H-purin-2-yl)amino)bicyclo[1.1.1]pentane-1-carbonitrile]  0.109 µM
17. COCCNc1nc2nc(NC34CC(C#N)(C3)C4)nc(Oc3c(C)cc(/C=C/C#N)cc3C)c2[nH]1 [Compound 46, (E)-3-((6-(4-(2-cyanovinyl)-2,6-dimethylphenoxy)-8-((2-methoxyethyl)amino)-7H-purin-2-yl)amino)bicyclo[1.1.1]pentane-1-carbonitrile]  0.0886 µM
18. Cc1cc(/C=C/C#N)cc(C)c1Oc1nc(NC23CC(C#N)(C2)C3)nc2nc(-c3cc[nH]n3)[nH]c12 [Compound 63, (E)-3-((6-(4-(2-cyanovinyl)-2,6-dimethylphenoxy)-8-(1H-pyrazol-3-yl)-7H-purin-2-yl)amino)bicyclo[1.1.1]pentane-1-carbonitrile]  0.0628 µM
19. Cc1cc(/C=C/C#N)cc(C)c1Oc1nc(NC23CC(C#N)(C2)C3)nc2c1ncn2CC1(C#N)CC1 [Compound 45, (E)-3-((9-((1-cyanocyclopropyl)methyl)-6-(4-(2-cyanovinyl)-2,6-dimethylphenoxy)-9H-purin-2-yl)amino)bicyclo[1.1.1]pentane-1-carbonitrile]  0.053 µM
20. Cc1cc(/C=C/C#N)c(C)c(C)c1Oc1nc(NC23CC(C#N)(C2)C3)nc2nn(C)cc12 [Compound 8, (E)-3-((4-(4-(2-cyanovinyl)-2,3,6-trimethylphenoxy)-2-methyl-2H-pyrazolo[3,4-d]pyrimidin-6-yl)amino)bicyclo[1.1.1]pentane-1-carbonitrile]  0.0447 µM
21. Cc1cc(/C=C/C#N)cc(C)c1Oc1nc(NC23CC(C#N)(C2)C3)nc2c1n(C(F)F)c(=O)n2C(F)F [Compound 28, (E)-3-((6-(4-(2-cyanovinyl)-2,6-dimethylphenoxy)-7,9-bis(difluoromethyl)-8-oxo-8,9-dihydro-7H-purin-2-yl)amino)bicyclo[1.1.1]pentane-1-carbonitrile]  0.044 µM
22. Cc1cc(/C=C/C#N)cc(C)c1Oc1nc(NC23CC(C#N)(C2)C3)nc2nc(C(F)F)n(C)c12 [Compound 25, (E)-3-((6-(4-(2-cyanovinyl)-2,6-dimethylphenoxy)-8-(difluoromethyl)-7-methyl-7H-purin-2-yl)amino)bicyclo[1.1.1]pentane-1-carbonitrile]  0.0372 µM
23. Cc1cc(/C=C/C#N)cc(C)c1Oc1nc(NC23CC(C#N)(C2)C3)nc2[nH]c(=O)n(C)c12 [Compound 24, (E)-3-((6-(4-(2-cyanovinyl)-2,6-dimethylphenoxy)-7-methyl-8-oxo-8,9-dihydro-7H-purin-2-yl)amino)bicyclo[1.1.1]pentane-1-carbonitrile]  0.032 µM
24. Cn1cc2c(Oc3c(F)cc(/C=C/C#N)cc3Cl)nc(NC34CC(C#N)(C3)C4)nc2n1 [Compound 5, (E)-3-((4-(2-chloro-4-(2-cyanovinyl)-6-fluorophenoxy)-2-methyl-2H-pyrazolo[3,4-d]pyrimidin-6-yl)amino)bicyclo[1.1.1]pentane-1-carbonitrile]  0.0261 µM
25. CCc1cc(/C=C/C#N)cc(Cl)c1Oc1nc(NC23CC(C#N)(C2)C3)nc2nn(C)cc12 [Compound 7, (E)-3-((4-(2-chloro-4-(2-cyanovinyl)-6-ethylphenoxy)-2-methyl-2H-pyrazolo[3,4-d]pyrimidin-6-yl)amino)bicyclo[1.1.1]pentane-1-carbonitrile]  0.0214 µM
26. CCc1nc2nc(NC34CC(C#N)(C3)C4)nc(Oc3c(C)cc(/C=C/C#N)cc3C)c2n1C(F)F [Compound 17, (E)-3-((6-(4-(2-cyanovinyl)-2,6-dimethylphenoxy)-7-(difluoromethyl)-8-ethyl-7H-purin-2-yl)amino)bicyclo[1.1.1]pentane-1-carbonitrile]  0.0214 µM
27. Cc1cc(/C=C/C#N)cc(Cl)c1Oc1nc(NC23CC(C#N)(C2)C3)nc2nn(C)cc12 [Compound 6, (E)-3-((4-(2-chloro-4-(2-cyanovinyl)-6-methylphenoxy)-2-methyl-2H-pyrazolo[3,4-d]pyrimidin-6-yl)amino)bicyclo[1.1.1]pentane-1-carbonitrile]  0.0174 µM
28. Cc1cc(/C=C/C#N)cc(C)c1Oc1nc(NC23CC(C#N)(C2)C3)nc2nc(C)n(C(F)F)c12 [Compound 13, (E)-3-((6-(4-(2-cyanovinyl)-2,6-dimethylphenoxy)-7-(difluoromethyl)-8-methyl-7H-purin-2-yl)amino)bicyclo[1.1.1]pentane-1-carbonitrile]  0.0117 µM
29. Cc1cc(/C=C/C#N)cc(C)c1Oc1nc(NC23CC(C#N)(C2)C3)nc2ncn(C(F)F)c12 [Compound 12, (E)-3-((6-(4-(2-cyanovinyl)-2,6-dimethylphenoxy)-7-(difluoromethyl)-7H-purin-2-yl)amino)bicyclo[1.1.1]pentane-1-carbonitrile]  0.00568 µM
